Reference: patent publication US20250302982A1, “METHODS OF TREATING CANCER WITH ANTI-TISSUE FACTOR ANTIBODY-DRUG CONJUGATES” (Genmab A/S, priority 2022, published 2025)
Entries after “also recorded” stand apart in the source; their conditions may differ. Marks after values point to notes of the source that are not given here.

Columns and labels:
[1] = target: T1, human TF (Homo sapiens, UniProt P13726); assay: Tisotumab binding to HNSCC cell lines by flow cytometry; conditions: 2 μg/ml
T1 construct: Three VU-SCC cells lines with various levels of TF expression were selected for additional analysis; endogenous in cells; host or cells: HNSCC cell lines VU-SCC-OE, VU-SCC-078, VU-SCC-120
T1 sequence (P13726 33-295): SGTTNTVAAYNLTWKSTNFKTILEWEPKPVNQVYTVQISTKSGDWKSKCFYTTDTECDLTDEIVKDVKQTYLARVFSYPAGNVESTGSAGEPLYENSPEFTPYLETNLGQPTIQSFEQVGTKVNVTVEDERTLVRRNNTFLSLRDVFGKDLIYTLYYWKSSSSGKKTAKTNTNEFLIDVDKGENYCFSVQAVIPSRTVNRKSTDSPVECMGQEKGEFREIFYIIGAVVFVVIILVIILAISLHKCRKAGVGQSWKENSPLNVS
Method: Methods: Three VU-SCC cells lines with various levels of TF expression were selected for additional analysis. It was determined that VU-SCC-OE had TF expression levels similar to that of non-cancerous fibroblasts and VU-SCC-078 had slightly higher expression levels of TF compared to VU-SCC-OE; VU-SCC-120 was a cell line with high levels of TF expression (FIG. 2). These three cell lines were cultured and subsequently assayed for tisotumab binding. Cells were incubated with the anti-human TF monoclonal antibody, (tisotumab, 2 μg/ml, IgG1-1015-011, Genmab) or an isotype control IgG (Genmab IgG1-b12). The PE-conjugated goat (Fab′)2 anti-human IgG secondary antibody (1:50 Jackson, 109-116-098) was applied and the cells were analyzed by flow cytometry.

[2] = tested on: HNSCC cell lines; assay: Cell Titer-Blue cytotoxicity assay in HNSCC cell lines; format: cell-based, human
Method: Methods: Cells were seeded in 96-wells plates on day 0 (1000-6000 cells/well, depending on the cell line). After overnight culturing, tisotumab vedotin or the negative control isotype IgG1-vedotin (IgG1-c-b12-vc monomethyl auristatin E (MMAE)) was added in increasing concentrations to the different wells. The relative number of viable cells was assessed on day 5 using a Cell Titer-Blue assay (Promega, Leiden, The Netherlands, G8080) according to the protocol from the manufacturer and fluorescence was measured using the GloMax®-Multi Detection System (Promega). Staurosporine (5 μM, Sigma, UCN-01 or 56942) was used as a positive control to induce maximum cell death, and untreated cells were also used as a negative control. After subtraction of background (medium only), the percentages of viable cells were calculated using the following formula: % viable cells=((mean fluorescence test samples−mean fluorescence staurosporine sample)/(mean fluorescence untreated sample−mean fluorescence staurosporine sample))*100. Graphs represent non-linear regression curves of log-transformed antibody concentrations, using Graphpad Prism version 9.1.0 (GraphPad Software, San Diego, CA).

[3] = tested on: primary keratinocytes; assay: Cell Titer-Blue cytotoxicity assay in primary keratinocytes; format: cell-based, human; conditions: low TF expression
Method: Keratinocytes were cultured in serum-free Keratinocyte medium (KSFM, Gibco, 17005-034) supplemented with 0.1% bovine serum albumin (BSA, Biovision), recombinant epidermal growth factor (EGF) (Gibco, 10450-013) and bovine pituitary extract (Gibco, 13028-014). HNSCC cell lines were cultured in Dulbecco's Modified Eagle's Medium (DMEM), containing 5% fetal bovine serum (FBS, Gibco, 10270-106) and 2 mM L-glutamine (Lonza, BE-17-605E). The FaDu cell line was purchased from the ATCC. […]
Methods: Cells were seeded in 96-wells plates on day 0 (1000-6000 cells/well, depending on the cell line). […] The relative number of viable cells was assessed on day 5 using a Cell Titer-Blue assay (Promega, Leiden, The Netherlands, G8080) according to the protocol from the manufacturer and fluorescence was measured using the GloMax®-Multi Detection System (Promega). […] After subtraction of background (medium only), the percentages of viable cells were calculated using the following formula: % viable cells=((mean fluorescence test samples−mean fluorescence staurosporine sample)/(mean fluorescence untreated sample−mean fluorescence staurosporine sample))*100. […]

[4] = tested on: FaDu tumor; assay: TV monotherapy in FaDu xenograft mice; format: in vivo, nude mice
Method: (§1) Nude mice (female, athymic nu/nu, age 6-8 weeks old, from Envigo, Horst, The Netherlands), were kept in filter top cages under sterile conditions under standardized environmental conditions. The HNSCC cell lines FaDu, VU-SCC-OE or VU-SCC-040 were subcutaneously injected in both flanks (2×10^6 cells per flank). The implanted tumor cells were allowed to grow to an average size of 100 mm^3 (range 40-180 mm^3). The mice were treated intraperitoneally (ip) with tisotumab vedotin or an isotype control (IgG1-b12-c-vcMMAE) (FIG. 6). […] Tumor volume was measured with electronic calipers (V=(L×W×H)×0.5 where V=volume, L=length, W=width, H=height) and calculated as mean of tumor(s) per mouse. Tumors with a start volume below 40 mm^3 and no signs of growth were excluded from the analysis. Tumors from un-treated tumor bearing mice were harvested and embedded in paraffin for analysis of TF expression using IHC analysis as described in the preceding examples. TF expression was detected using anti-CD142-FITC or isotype control (IgG1-FITC) with rabbit anti-FITC (Zymed) and BrightVision Immunohistochemistry (IHC) Detection Kit and visualized with DAB counterstained with Haematoxylin.
(§2) Nude mice were injected with HNSCC cells and xenografts were established as described above in Example 3A. Xenograft mice (5 mice with 8-10 tumors per group) were treated with PBS, 2 and 4 mg/kg tisotumab vedotin, or 4 mg/kg isotype IgG1-vedotin on days 0, 7 and 13 (FaDu) or on days 0, 7 and 14 (VU-SCC-OE and VU-SCC-040) (FIG. 6). Tumor volume was measured as described in the preceding example. Data analysis was performed using Graph Pad Prism version 9.1.0 (GraphPad Software, San Diego, CA). Data are depicted as mean±SD or mean±SEM. Statistical differences were determined using a Kruskal-Wallis test with multiple comparison tests (>2 groups). Improved overall survival was assessed using the Kaplan-Meier method and differences between the groups was assessed by the Log-rank test (Mantel-Cox). p-values<0.05 were considered significant (*p<0.05, **p<0.01,***p<0.001, **** p<0.0001, ns=not significant).

[5] = tested on: VU-SCC-OE tumor; assay: TV monotherapy in VU-SCC-OE xenograft mice; format: in vivo, nude mice; conditions: days 0, 7, 14
Method: as §1
as §2, with “Xenograft mice (5 mice with 8-10 tumors per group) were treated with PBS, 2 and 4 mg/kg tisotumab vedotin, or 4 mg/kg isotype IgG1-vedotin on days 0, 7 and 13 (FaDu) or on days 0, 7 and 14 (VU-SCC-OE and VU-SCC-040) (FIG. 6).” left out

[6] = tested on: VU-SCC-040 tumor; assay: TV monotherapy in VU-SCC-040 xenograft mice; format: in vivo, nude mice
Method: as §1
as §2, with “Xenograft mice (5 mice with 8-10 tumors per group) were treated with PBS, 2 and 4 mg/kg tisotumab vedotin, or 4 mg/kg isotype IgG1-vedotin on days 0, 7 and 13 (FaDu) or on days 0, 7 and 14 (VU-SCC-OE and VU-SCC-040) (FIG. 6).” left out

[7] = tested on: FaDu xenograft; assay: TV combined with chemoradiotherapy (CRT) in FaDu xenograft mice; format: in vivo, nude mice
Method: (§3) Methods: FaDu xenografts were established in nude mice (5-6 mice/group) as described above in Example 3.
(§4) FaDu xenograft mice were treated 24 hour hours prior to CRT (CRT was administered on day 1 and 11) with TV or the isotype control, which was administered on day 0 and 10. VU-SCC-OE xenograft mice were treated 24 hour hours prior to CRT (CRT was administered on day 1 and 8) with TV or the isotype (IgG1-vedotin) control, which was administered on day 0 and 7. For mice receiving CRT, whole body irradiation (2 Gy; Varian TrueBeam™ Linear Accelerator) was applied approximately 4 hours after administering cisplatin (CDDP, 3 mg/kg). Tumor volume was measured as described above, and statistical analysis was performed on the collected data as also described above.

[8] = tested on: VU-SCC-OE xenograft; assay: TV combined with chemoradiotherapy (CRT) in VU-SCC-OE xenograft mice; format: in vivo, nude mice
Method: as §3, §4

[9] = tested on: FaDu xenograft; assay: TV combined with radiotherapy (RT) in FaDu xenograft mice; format: in vivo, nude mice; conditions: for Median survival [days]: end of experiment day 112; for Range Survival [days]: end of the experiment is day 112
Method: FaDu xenografts were established in nude mice as described in Example 3. […] For mice subjected to RT, 2 Gy whole body radiotherapy was administered at day 1.

[10] = tested on: FaDu xenograft; assay: TV combined with cisplatin (CDDP) in FaDu xenograft mice; conditions: 2 mg/kg TV + cisplatin 3 mg/kg ip
Method: FaDu xenografts were established in nude mice (6-7 mice/group) as described above in Example 4. Mice were treated with the antibodies on day 0 and 7 and/or on day 1 and 8 with 3 mg/kg intraperitoneal cisplatin (CDDP) chemotherapy (CT) (FIG. 6). TV or control IgG-vedotin (IgG1-V) was administered at day 0. For mice subjected to chemotherapy, cisplatin was administered at day 1. A minimum of 8 tumors were included per group.

## tisotumab
[1]; VU-SCC-078, intermediate expression of TF
  binding to HNSCC cells (flow cytometry): bound robustly
[1]; VU-SCC-120, high levels of TF
  binding to HNSCC cells (flow cytometry): bound robustly
[1]; VU-SCC-OE, lower levels of TF expression
  binding to HNSCC cells (flow cytometry): still capable of binding

## tisotumab vedotin
[2]; HNSCC cell lines with intermediate and high levels of TF expression
  mean IC50 values: 2.5 to 7 ng/mL
[2]; VU-SCC-OE, low TF expression
  average IC50: above 0.025 μg/ml
[2]; increasing concentrations, viable cells on day 5
  killing of HNSCC cell lines (percent viable cells): efficient and dose-dependent killing
[3]
  average IC50: above 0.025 μg/ml
[4]; 2 mg/kg ip, days 0, 7, 13
  tumor growth compared to control groups: significant inhibition of tumor growth
  tumor regression: tumor regression was observed after 3 treatments
[4]; 2 mg/kg, last treatment on day 13
  time after start of initial treatment from which tumor regrowth was visible: ≥ 30 days
[4]; 4 mg/kg ip, after the first treatment
  tumor regression: significant and persistent tumor regression
[4]; 4 mg/kg ip, days 0, 7, 13
  recurrence of tumor growth until end of experiment (day 76): without recurrence of tumor growth
  time to complete tumor regression in all mice: ≤ 30 days
[4]; tisotumab vedotin treatment groups, day 7
  tumor size on day 7 compared to isotype control or PBS: considerably lower tumor size
[5]; 1 mg/kg
  tumor growth: rapid tumor growth
[5]; 2 mg/kg
  tumor growth: inhibition of tumor growth
[5]; 4 mg/kg TV
  tumor growth: inhibition of tumor growth
[6]; 1 mg/kg monotherapy
  tumor growth compared to control groups: did not inhibit tumor growth
[6]; 2 mg/kg
  tumor growth compared to control groups: inhibition of tumor growth was observed
[6]; 4 mg/kg
  tumor growth compared to control groups: inhibition of tumor growth was observed
[6]; 4 mg/kg, after 1 treatment
  tumor growth at day 7 compared to isotype control: reduced tumor growth
[7]; 2 mg/kg TV + CRT
  overall survival (Kaplan-Meier) compared to control groups, CRT or TV alone: significant increase in overall survival
  tumor size at day 9 after first treatment compared to IgG1-vedotin + CRT: significant reduction in tumor size
[7]; 2 mg/kg TV alone, day 0 and 10
  tumor growth compared to IgG1-vedotin control group: reduced tumor growth
[8]; 2 mg/kg TV + CRT
  survival compared to control groups or CRT or TV alone: significantly prolonged survival
  tumor regression: induced tumor regression
[8]; 2 mg/kg TV alone
  tumor growth compared to control groups (PBS and IgG1-vedotin): some inhibition of tumor growth
[9]; 1 mg/kg TV alone
  survival compared to control treatment (PBS or IgG-V): did not prolong survival
[9]; 2 mg/kg TV + RT, p<0.001
  survival time compared to RT alone: significantly better survival time
[9]; TV 1 mg/kg day 0 + RT 2 Gy day 1
  tumor volume on day 7: Decreased tumor volume
[9]; TV 2 mg/kg alone, day 0
  tumor burden on day 7: lowest tumor burdens
[9]; TV 2 mg/kg day 0 + RT 2 Gy day 1, listed as TV
  tumor burden / tumor volume on day 7: lowest tumor burdens; also recorded: Decreased tumor volume
[9]; hTV 1 mg/kg
  Median survival: 10 days
  Range Survival: 8 to 16 days
[9]; hTV 1 mg/kg + RT (2 Gy)
  Median survival: 21 days
  Range Survival: 14 to 21 days
[9]; hTV 2 mg/kg
  Median survival: 69.5 days
  Range Survival [days]: 28-112* days
[9]; hTV 2 mg/kg + RT (2 Gy), listed as TV
  Median survival [days]: median not reached
[9]; hTV 2 mg/kg + RT (2 Gy), listed as hTV
  Median survival [days]: Undefined
[9]; hTV 2 mg/kg + RT (2 Gy)
  Range Survival [days]: 21-112* days
[10]
  survival compared to either treatment alone: improved survival
  tumor load on day 7 compared to either treatment alone: significantly reduced tumor load
